The source of these data is ChEMBL document CHEMBL4823254, “Tetrahydroquinoline-Capped Histone Deacetylase 6 Inhibitor SW-101 Ameliorates Pathological Phenotypes in a Charcot-Marie-Tooth Type 2A Mouse Model” (J Med Chem, 2021).

Active and inactive are the calls of the source. The calls are words filed in the database; no cut-off is given here.

For data set [1], the target named is T1, Protein deacetylase HDAC6 (Homo sapiens, UniProt Q9UBN7).
T1 sequence (Q9UBN7 whole entry): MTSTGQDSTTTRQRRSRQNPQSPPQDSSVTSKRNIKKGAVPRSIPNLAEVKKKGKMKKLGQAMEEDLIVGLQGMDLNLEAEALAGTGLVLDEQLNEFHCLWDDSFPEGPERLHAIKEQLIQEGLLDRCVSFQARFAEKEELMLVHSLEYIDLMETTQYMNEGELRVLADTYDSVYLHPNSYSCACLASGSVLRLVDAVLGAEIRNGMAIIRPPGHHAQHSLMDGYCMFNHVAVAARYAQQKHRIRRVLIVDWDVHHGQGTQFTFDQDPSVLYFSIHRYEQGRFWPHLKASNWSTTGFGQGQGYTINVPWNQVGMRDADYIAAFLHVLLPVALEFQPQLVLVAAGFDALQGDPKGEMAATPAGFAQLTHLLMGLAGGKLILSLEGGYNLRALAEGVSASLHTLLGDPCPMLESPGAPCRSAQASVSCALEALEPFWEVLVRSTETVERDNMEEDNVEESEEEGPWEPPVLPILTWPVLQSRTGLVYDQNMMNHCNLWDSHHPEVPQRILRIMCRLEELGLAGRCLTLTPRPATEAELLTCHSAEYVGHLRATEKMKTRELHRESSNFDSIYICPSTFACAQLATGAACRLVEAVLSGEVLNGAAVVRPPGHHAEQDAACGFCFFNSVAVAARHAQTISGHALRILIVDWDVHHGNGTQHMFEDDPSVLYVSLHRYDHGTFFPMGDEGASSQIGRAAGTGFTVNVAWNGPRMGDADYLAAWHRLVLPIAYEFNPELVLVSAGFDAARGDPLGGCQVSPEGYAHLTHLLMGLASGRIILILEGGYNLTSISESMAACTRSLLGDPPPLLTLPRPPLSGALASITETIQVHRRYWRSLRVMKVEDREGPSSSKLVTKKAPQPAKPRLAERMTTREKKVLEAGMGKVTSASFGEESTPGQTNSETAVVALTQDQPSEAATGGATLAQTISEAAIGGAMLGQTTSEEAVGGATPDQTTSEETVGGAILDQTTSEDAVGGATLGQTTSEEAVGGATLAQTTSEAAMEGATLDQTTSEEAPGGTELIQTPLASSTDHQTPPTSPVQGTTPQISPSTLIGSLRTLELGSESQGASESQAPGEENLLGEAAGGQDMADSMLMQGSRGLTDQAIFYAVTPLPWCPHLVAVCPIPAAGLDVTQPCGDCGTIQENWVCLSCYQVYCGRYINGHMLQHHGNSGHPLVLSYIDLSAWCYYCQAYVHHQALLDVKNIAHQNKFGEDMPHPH
Briefly: Inhibition of HDAC6 in human RPMI-8226 cells assessed as increase in tubulin acetylation incubated for 6 hrs by Western blot analysis. Type of data set: cell-based. (Immunoblotting shows a protein as a band on a membrane.)

For data set [2], the target named is T1, Protein deacetylase HDAC6.
Description: Inhibition of recombinant human HDAC6 using Ac-GAK(Ac)-AMC as substrate preincubated for 10 mins followed by substrate addition and measured after 30 mins by fluorescence-based assay
The nature of data set [3]: Genotoxicity in Salmonella typhimurium TA100 at 5 to 100 uM in presence of liver S9 fraction by Ames test. Format: toxicity. The conditions noted are these: salmonella enterica subsp. enterica serovar typhimurium, s9, 100 µM; dose 5-100 µM.
The target in a further data set is Histone deacetylase 4 (Homo sapiens, UniProt P56524). The data set can be described thus: Inhibition of recombinant human HDAC4 using Boc-Lys(TFA)-AMC as substrate preincubated for 10 mins followed by substrate addition and measured after 30 mins by fluorescence-based assay.
Histone deacetylase 4, sequence (P56524 whole entry): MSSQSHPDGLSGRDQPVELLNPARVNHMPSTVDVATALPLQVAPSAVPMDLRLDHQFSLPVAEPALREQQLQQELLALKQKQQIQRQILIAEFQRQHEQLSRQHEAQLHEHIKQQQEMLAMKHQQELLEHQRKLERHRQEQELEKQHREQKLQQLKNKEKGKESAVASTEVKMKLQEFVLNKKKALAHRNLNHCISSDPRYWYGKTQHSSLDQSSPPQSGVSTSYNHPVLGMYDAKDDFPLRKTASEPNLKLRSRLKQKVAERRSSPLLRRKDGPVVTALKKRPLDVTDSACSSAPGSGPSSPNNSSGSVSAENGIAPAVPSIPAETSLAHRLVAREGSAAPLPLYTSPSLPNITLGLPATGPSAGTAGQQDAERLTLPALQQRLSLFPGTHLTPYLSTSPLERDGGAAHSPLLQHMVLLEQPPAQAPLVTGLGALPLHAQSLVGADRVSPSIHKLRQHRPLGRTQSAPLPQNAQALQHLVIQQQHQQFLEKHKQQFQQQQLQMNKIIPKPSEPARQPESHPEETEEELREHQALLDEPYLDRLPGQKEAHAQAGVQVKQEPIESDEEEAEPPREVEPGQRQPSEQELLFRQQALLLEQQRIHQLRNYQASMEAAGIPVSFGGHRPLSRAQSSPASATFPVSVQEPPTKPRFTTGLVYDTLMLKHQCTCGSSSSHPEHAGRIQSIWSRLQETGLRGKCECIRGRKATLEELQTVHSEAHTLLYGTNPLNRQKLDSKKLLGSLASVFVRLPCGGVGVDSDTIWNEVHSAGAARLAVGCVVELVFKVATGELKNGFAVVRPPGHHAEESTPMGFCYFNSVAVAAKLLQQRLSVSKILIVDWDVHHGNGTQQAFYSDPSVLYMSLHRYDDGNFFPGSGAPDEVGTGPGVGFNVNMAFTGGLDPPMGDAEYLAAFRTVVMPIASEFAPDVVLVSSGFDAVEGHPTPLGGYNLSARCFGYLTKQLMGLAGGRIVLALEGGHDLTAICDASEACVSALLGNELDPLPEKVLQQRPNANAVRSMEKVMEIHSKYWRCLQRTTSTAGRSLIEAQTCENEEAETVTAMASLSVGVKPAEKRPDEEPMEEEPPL
Data set [4] is described as follows: Cmax in C57BL/6J mouse plasma at 15 mg/kg, ip. Type of data set: ADME, organism-based. Set-up: route intraperitoneal, dose 15 mg/kg.
Data set [5] concerns the target T2, Protein deacetylase HDAC6 (Mus musculus) (UniProt Q9Z2V5).
T2 sequence (whole entry): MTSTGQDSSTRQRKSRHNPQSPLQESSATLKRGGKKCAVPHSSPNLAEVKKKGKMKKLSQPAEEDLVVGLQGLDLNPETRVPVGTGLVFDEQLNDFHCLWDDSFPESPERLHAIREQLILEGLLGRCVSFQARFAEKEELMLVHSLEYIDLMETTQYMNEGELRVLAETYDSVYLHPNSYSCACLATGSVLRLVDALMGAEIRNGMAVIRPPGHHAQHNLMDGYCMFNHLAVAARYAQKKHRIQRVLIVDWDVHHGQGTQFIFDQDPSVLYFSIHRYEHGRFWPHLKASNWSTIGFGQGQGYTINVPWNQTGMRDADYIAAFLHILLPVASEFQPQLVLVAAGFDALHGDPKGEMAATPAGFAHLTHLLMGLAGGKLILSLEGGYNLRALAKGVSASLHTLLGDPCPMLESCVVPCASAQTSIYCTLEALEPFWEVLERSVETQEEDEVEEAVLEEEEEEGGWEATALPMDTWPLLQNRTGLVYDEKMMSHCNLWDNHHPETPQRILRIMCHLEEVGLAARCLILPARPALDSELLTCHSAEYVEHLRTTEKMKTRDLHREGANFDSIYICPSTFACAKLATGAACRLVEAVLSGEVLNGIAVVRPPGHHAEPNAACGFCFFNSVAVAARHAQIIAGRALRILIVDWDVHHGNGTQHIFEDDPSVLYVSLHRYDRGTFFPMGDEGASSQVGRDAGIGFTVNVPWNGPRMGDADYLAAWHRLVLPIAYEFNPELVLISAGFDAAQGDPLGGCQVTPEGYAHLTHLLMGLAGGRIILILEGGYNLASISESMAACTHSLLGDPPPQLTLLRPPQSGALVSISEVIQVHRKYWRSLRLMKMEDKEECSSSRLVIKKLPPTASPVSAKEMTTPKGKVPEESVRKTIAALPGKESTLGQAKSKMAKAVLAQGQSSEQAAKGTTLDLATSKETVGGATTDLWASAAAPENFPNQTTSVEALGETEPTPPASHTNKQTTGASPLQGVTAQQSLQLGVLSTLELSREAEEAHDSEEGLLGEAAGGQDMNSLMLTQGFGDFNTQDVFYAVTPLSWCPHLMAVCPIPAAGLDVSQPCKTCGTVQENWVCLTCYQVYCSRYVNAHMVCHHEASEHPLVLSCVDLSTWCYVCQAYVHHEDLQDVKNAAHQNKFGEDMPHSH
The data set can be described thus: In vivo inhibition of HDAC6 in hMFN2-induced CMT2A transgenic mouse model assessed as increase in acetylated tubulin in distal sciatic nerve tissue at 20 mg/kg, ip qd administered for 22 weeks by Western blot analysis. Type of data set: functional, organism-based.

The subject of another data set is Mus musculus. Briefly: Neuroprotective activity in hMFN2-induced CMT2A transgenic mouse model assessed as assessed as latency to fall at 20 mg/kg, ip qd administered for 26 weeks when treated prior with compound dissolved in PBS/PEG400/Tween80/EtOH (50/35/10/5) wt% as vehicle by rotarod test. Format: functional, organism-based. (The rotarod test checks motor coordination on a turning rod.)

The nature of data set [6]: Genotoxicity in Salmonella typhimurium TA1537 at 5 to 100 uM in absence of liver S9 fraction by Ames test. Format: toxicity. The conditions noted are these: salmonella enterica subsp. enterica serovar typhimurium, s9, 100 µM; dose 5-100 µM.
In data set [7] the target is T1, Protein deacetylase HDAC6. The source holds these as a separate data set.
Description: Inhibition of Nanoluc-fused HDAC6 CD2 (unknown origin) expressed in HEK293 cells incubated for 2 hrs by NANOBRET assay
A short description of data set [8]: Half life in human plasma. Type of data set: ADME, cell-free.
Data set [9] can be described thus: Tmax in C57BL/6J mouse brain at 15 mg/kg, ip. Type of data set: ADME, organism-based.

Consider `NC(=O)c1ccc2c(c1)CCCN2Cc1ccc(C(=O)NO)cc1`, for which, in data set [1], the EC50 worked out at 140 nM. The 50% inhibitory concentration (IC50) is 0.7 nM in [2], 454 nM at Histone deacetylase 4 and 1370 nM in data set [7]. For the same molecule, the Activity entry in [3] and in [6] was “Non-Toxic” in each case. In [4], this molecule yielded a Cmax of 3580 ng/mL. In addition, in data set [5], the inhibition result was “Active”. Also, in the data set on Mus musculus, the outcome was Active. In addition, the half-life in data set [8] is more than 400 min. In [9], the time of peak concentration (Tmax) turned out to be 15 min.

In general, EC50 refers to the midpoint of the concentration-response curve. The term IC50 denotes the midpoint of a concentration-inhibition curve. Usually Cmax stands for the highest concentration seen after dosing. Usually half-life stands for the time in which the quantity being followed falls by half. Lower therefore signals fast loss. As usually defined, the Tmax is the time from dosing to the highest level.
